A word on the IC90: it is the concentration needed for an effect of 90%.

The values below come from patent US20230017532A1 (Hoffmann-La Roche Inc., priority 2018, published 2023).

Each structure is given as a SMILES string. Where a name gives a salt, the structure may show the parent alone.

In the first assay the test system is Acinetobacter baumannii ATCC17978. Nature of the assay: Antimicrobial susceptibility testing: 90% growth inhibitory concentration (IC90) determination, Iso-Sensitest broth, OD 600 nm. It counts as cell-based. Particulars: 90% growth inhibitory concentration, Acinetobacter baumannii ATCC17978, Iso-Sensitest broth, OD 600 nm over 16 h; read-out: ATCC 17978 IC90. As to the method:
Antimicrobial Susceptibility Testing:
90% Growth Inhibitory Concentration (IC90) Determination
The in vitro antimicrobial activity of the compounds was determined according to the following procedure:
The assay used a 10-points Iso-Sensitest broth medium to measure quantitatively the in vitro activity of the compounds against Acinetobacter baumannii ATCC17978 and Acinetobacter baumannii ATCC17961.
Stock compounds in DMSO were serially twofold diluted (e.g. range from 50 to 0.097 μM final concentration) in 384 wells microtiter plates and inoculated with 49 μl the bacterial suspension in Iso-Sensitest medium to have a final cell concentration of ˜5×10^(5) CFU/ml in a final volume/well of 50 ul/well. Microtiter plates were incubated at 35±2° C.
Bacterial cell growth was determined with the measurement of optical density at λ=600 nm each 20 minutes over a time course of 16 h. Growth inhibition was calculated during the logarithmic growth of the bacterial cells with determination of the concentration inhibiting 50% (IC50) and 90% (IC90) of the growth.
Table 1 provides the 90% growth inhibitory concentrations (IC90) in micromoles per liter of the compounds of present invention obtained against the strain Acinetobacter baumannii ATCC17978 and Acinetobacter baumannii ATCC17961.
Turning to `CCc1cc(Nc2nccn3c(-c4ccc(OC)c(F)c4F)cnc23)ccc1C(=O)NCCNCCN` [Example 186, N-[2-(2-aminoethyl-amino)ethyl]-4-[[3-(2,3-difluoro-4-methoxyphenyl)imidazo[1,2-a]pyrazin-8-yl]amino]-2-ethyl-benzamide;2,2,2-trifluoroacetic acid], the 90% effect concentration (IC90) was 0.66 µM.

Still in this assay, the particulars now being: Acinetobacter baumannii, ATCC17978, 16 h, 90% growth inhibitory concentration, Acinetobacter baumannii ATCC17978, Iso-Sensitest broth, OD 600 nm over 16 h; read-out: ATCC 17978 IC90.
With `Cc1cc(Nc2nccn3c(-c4ccc(OC(F)F)cc4)cnc23)ccc1C(=O)NCCOCCOCCOCCN` [Example 17, N-(2-(2-(2-(2-aminoethoxy)ethoxy)ethoxy)ethyl)-4-((3-(4-(difluoromethoxy)phenyl)imidazo[1,2-a]pyrazin-8-yl)amino)-2-methylbenzamide], the 90% effect concentration (IC90) is 1.1 µM.

For the molecule `COc1ccc(-c2cnc3c(Nc4ccc(C(=O)N(C)CCOCCN5CCN(C6COC6)CC5)c(C)c4)nccn23)cc1F` [Example 151, 4-[[3-(3-fluoro-4-methoxyphenyl)imidazo[1,2-a]pyrazin-8-yl]amino]-N,2-dimethyl-N-[2-[2-[4-(oxetan-3-yl)piperazin-1-yl]ethoxy]ethyl] benzamide], the concentration for an effect of 90% (IC90) is 1.6 µM.

On to `CCc1cc(Nc2nccn3c(-c4ccc(OCC#N)c(F)c4Cl)cnc23)ccc1C(=O)NCCOCCN(C)C` [Example 22, 4-[[3-[2-chloro-4-(cyanomethoxy)-3-fluoro-phenyl]imidazo[1,2-a]pyrazin-8-yl]amino]-N-[2-[2-(dimethylamino)ethoxy]ethyl]-2-ethyl-benzamide], for which the IC90 was determined as 0.067 µM.

As for `COC(=O)COCCOCCNC(=O)c1ccc(Nc2nccn3c(-c4ccc(OC(F)F)cc4)cnc23)cc1C` [Example 156, methyl 2-[2-[2-[[4-[[3-[4-(difluoro-methoxy)phenyl]imidazo [1,2-a]pyrazin-8-yl]amino]-2-methylbenzoyl]amino]ethoxy]ethoxy]acetate], the IC90 worked out at 2.4 µM.

On to `Cc1cc(Nc2nccn3c(-c4ccc(Cl)c(F)c4F)cnc23)ccc1C(=O)NCCOCCN` [Example 88, N-[2-(2-aminoethoxy)ethyl]-4-[[3-(4-chloro-2,3-difluorophenyl)imidazo[1,2-a]pyrazin-8-yl]amino]-2-methylbenzamide; hydrochloride], for which the concentration for an effect of 90% (IC90) was 0.21 µM.

With `Cc1cc(Nc2nccn3c(-c4ccc(Cl)c(F)c4F)cnc23)ccc1C(=O)NCCNCCO` [Example 80, 4-[[3-(4-chloro-2,3-difluorophenyl)imidazo[1,2-a]pyrazin-8-yl]amino]-N-[2-(2-hydroxy-ethylamino)ethyl]-2-methyl-benzamide; hydrochloride], the IC90 worked out at 5.1 µM.

For `Cc1cc(Nc2nccn3c(-c4ccc(OC(F)F)cc4)cnc23)ccc1C(=O)NCCOCCNC(=O)CN1CCNCC1` [Example 153, 4-[[3-[4-(difluoro-methoxy)phenyl]imidazo [1,2-a]pyrazin-8-yl]amino]-2-methyl-N-[2-[2-[(2-piperazin-1-ylacetyl)amino)ethoxy]ethyl] benzamide; hydrochloride], the IC90 came out at 2 µM.

As for `Cc1cc(Nc2nccn3c(-c4ccc(OC(F)F)cc4)cnc23)ccc1C(=O)NCCOCCN1CCC2(CCOCC2)C1` [Example 91, 4-[[3-[4-(difluoromethoxy)phenyl]imidazo [1,2-a]pyrazin-8-yl]amino]-2-methyl-N-[2-[2-(8-oxa-2-azaspiro[4.5]decan-2-yl)ethoxy]ethyl] benzamide], the IC90 came to 0.65 µM.

With `Cc1cc(Nc2nccn3c(-c4ccc(OC(F)F)cc4)cnc23)ccc1C(=O)NCCOCCO` [Example 129, 4-[[3-[4-(difluoromethoxy)phenyl]imidazo [1,2-a]pyrazin-8-yl]amino]-N-[2-(2-hydroxyethoxy)ethyl]-2-methylbenzamide], the concentration for an effect of 90% (IC90) was found to be 0.72 µM.

As for `CNCCNC(=O)c1ccc(Nc2nccn3c(-c4ccc(OC)c(Cl)c4)cnc23)cc1` [Example 13, 4-[[3-(3-chloro-4-methoxyphenyl)imidazo[1,2-a]pyrazin-8-yl]amino]-N-[2-(methylamino)ethyl]benzamide;hydrochloride], the 90% effect concentration (IC90) was 4.2 µM.

With `N#CCOc1ccc(-c2cnc3c(Nc4ccc(C(=O)NCCOCCN5CCNC(C(=O)O)C5)c(Cl)c4)nccn23)c(F)c1F` (centres unmarked) [Example 177, 4-[2-[2-[[2-chloro-4-[[3-[4-(cyanomethoxy)-2,3-difluorophenyl]imidazo[1,2-a]pyrazin-8-yl]amino]benzoyl]amino]ethoxy]ethyl]piperazine-2-carboxylic acid; formic acid], the concentration for an effect of 90% (IC90) turned out to be 2.3 µM.

As for `CCc1cc(Nc2nccn3c(-c4ccc(OC)c(F)c4F)cnc23)ccc1C(=O)NCCCCCNCC(=O)O` [Example 50, (5-(4-((3-(2,3-difluoro-4-methoxyphenyl)imidazo[1,2-a]pyrazin-8-yl)amino)-2-ethylbenzamido)pentyl)glycine hydrochloride], the IC90 came to 0.19 µM.

On to `CCc1cc(Nc2nccn3c(-c4ccc(OC)c(F)c4F)cnc23)ccc1C(=O)NCCOCCN(C)CC(=O)O` [Example 52, N-(2-(2-(4-((3-(2,3-difluoro-4-methoxyphenyl)imidazo[1,2-a]pyrazin-8-yl)amino)-2-ethylbenzamido)ethoxy)ethyl)-N-methylglycine hydrochloride], for which the IC90 stood at 0.32 µM.

Take `Cc1cc(Nc2nccn3c(-c4ccc(OC(F)F)cc4)cnc23)ccc1C(=O)NCCOCCOCCOCCN=[N+]=[N-]` [Example 139, N-[2-[2-[2-(2-azidoethoxy)ethoxy]ethoxy]ethyl]-4-[[3-[4-(difluoro-methoxy)phenyl]imidazo [1,2-a]pyrazin-8-yl]amino]-2-methylbenzamide]: the IC90 amounted to 1 µM.

`COc1ccc(-c2cnc3c(Nc4ccc(C(=O)NCCOCCO)c(C)c4)nccn23)cc1` [Example 116, N-[2-(2-hydroxyethoxy)ethyl]-4-[[3-(4-methoxyphenyl)imidazo[1,2-a]pyrazin-8-yl]amino]-2-methylbenzamide]: the 90% effect concentration (IC90) amounted to 0.59 µM.

Turning to `COc1ccc(-c2cnc3c(Nc4ccc(C(=O)NCCOCCN)c(Cl)c4)nccn23)cc1` [Example 6, N-(2-(2-aminoethoxy)ethyl)-2-chloro-4-((3-(4-methoxyphenyl)imidazo[1,2-a]pyrazin-8-yl)amino)benzamide hydrochloride], the IC90 came out at 0.12 µM.

Consider `COc1ccc(-c2cnc3c(Nc4ccc(C(=O)N(CCC#N)CCCCNCCC#N)c(C)c4)nccn23)cc1F` [Example 165, N-(2-cyanoethyl)-N-[4-(2-cyanoethyl-amino)butyl]-4-[[3-(3-fluoro-4-methoxyphenyl)imidazo[1,2-a]pyrazin-8-yl]amino]-2-methylbenzamide], for which the IC90 came out at 1.5 µM.

On to `CCc1cc(Nc2nccn3c(-c4ccc(Cl)c(F)c4F)cnc23)ccc1C(=O)NCCCNC` [Example 192, 4-[[3-(4-chloro-2,3-difluorophenyl)imidazo[1,2-a]pyrazin-8-yl]amino]-2-ethyl-N-[3-(methyl-amino)propyl] benzamide; hydrochloride], for which the IC90 came to 1.6 µM.

Staying with this assay, now noted: Acinetobacter baumannii, ATCC17978, 16 h, read-out: ATCC 17978 IC90.
Consider `CCc1cc(Nc2nccn3c(-c4ccc(OC)c(F)c4F)cnc23)ccc1C(=O)NCCOCCNCC(=O)O` [Example 70, 2-[2-[2-[[4-[[3-(2,3-difluoro-4-methoxy-phenyl)imidazo[1,2-a]pyrazin-8-yl]amino]-2-ethyl-benzoyl]amino]ethoxy]ethylamino]acetic acid; formic acid], for which the IC90 was 0.49 µM.
